In article PMC3456924, “Single-dose pharmacokinetic and toxicity analysis of pyrrole–imidazole polyamides in mice” (Cancer Chemotherapy and Pharmacology, 2012):
Entries after “also recorded” stand apart in the source; their conditions may differ.

Experiments:
[1] = pH stability analysis; type: physicochemical; settings: buffers at 37 °C for 24 h; analytical HPLC
Experimental: The pH stability of Py-Im polyamides was analyzed as previously described. In summary, 15 μL of a 10 μM solution of polyamide 1 or 2 in DMSO was incubated with 85 μL of buffer with pH of 2.5, 4, 7, or 10 (Fluka) at 37 °C for 24 h. After incubation, the sample was mixed with an equal volume of N,N-dimethylformamide and sonicated briefly. Next, 20 μL of the sample solution was mixed with 180 μL of aqueous buffer containing 100 mM NH4OAc and 25 μM methyl 4-nitro-1H-pyrrole-2-carboxylate as an internal standard. Analytical HPLC analysis was performed on a Beckman analytical HPLC.

[2] = Urinary and fecal excretion after a single IV injection; type: in vivo, BALB/C mice
Experimental: Pyrrole–imidazole polyamide pharmacokinetic studies were performed in 10- to 12-week-old female BALB/C mice (Charles River). Polyamides were solubilized in PBS (1) or PBS/DMSO (2) and administered via intravenous (IV) tail vein injection at concentrations of 7.5 and 5 mg/kg, respectively. For each experiment, groups of 3 animals were euthanized at 0.083, 0.25, 0.5, 1, 2, 4, 8, and 24 h after injection. Animals designated for the 4, 8, and 24 h time points were housed in metabolic cages for collection of urine and feces as described below. All animals used in the pharmacokinetic experiments were performed under an approved protocol at the City of Hope.
Urine and fecal samples were collected using metabolic cages (Ancare, Techniplast Metabolic Rack, 12 cages by Nalgene). Urine samples were collected at 3 time points over 24 h, and fecal samples were collected at 8 and 24 h time points. […]
Plasma pharmacokinetic parameters were derived from polyamide concentration profiles using both non-compartmental and compartmental methods. […] Additional plasma pharmacokinetic parameters determined from the compartmental analysis include the alpha and beta half-lives (t 1/2) and the apparent volume of distribution (V d). […] Urinary and fecal excretion data were expressed as the cumulative percentage of the administered dose.

[3] = tested on: androgen receptor (AR) signaling; PSA mRNA in LNCaP prostate cancer cells; settings: cited from earlier work
[4] = parameters: method as in PMID 19413319; settings: previous ADMET study; cited from earlier work
[5] = Aqueous solubility; type: physicochemical; settings: 2 requires a polar aprotic cosolvent like DMSO for administration
[6] = tested on: 5′-WGWWCW-3′ sequence (androgen response element DNA); parameters: method as in PMID 18459783, PMID 22080545, PMID 17566103; settings: cited from earlier work

Row | SMILES | stability at pH 2.5, 4, 7, and 10 [1] | cumulative urinary excretion ([2]; nearly complete by 4 h, single IV 7.5 mg/kg) | most active concentration for inhibition of DHT-induced genes ([3]; LNCaP cells co-treated with DHT) | liver microsomal degradation [4] | solubility in aqueous solutions [5] | DNA-binding ability relative to polyamide 1 [6] | cumulative urinary excretion at 24 h ([2]; 24 h, single IV 5 mg/kg) | activity relative to polyamide 1 (AR-driven gene / PSA mRNA downregulation) ([3]; cell culture)
1 | CN(CCCNC(=O)c1cccc(C(=O)O)c1)CCCNC(=O)c1cc(NC(=O)c2cc(NC(=O)c3cc(NC(=O)c4nc(NC(=O)[C@H](N)CCNC(=O)c5cc(NC(=O)c6cc(NC(=O)c7cc(NC(=O)c8nccn8C)cn7C)cn6C)cn5C)cn4C)cn3C)cn2C)cn1C [Polyamide 1] | did not display significant signs of degradation at any pH | 5.7 ± 2.9 % of the administered dose | 7.4 µg/mL |  |  |  |  | 
2 | CC(=O)N[C@@H](CNC(=O)c1cc(NC(=O)c2cc(NC(=O)c3cc(NC(=O)c4nccn4C)cn3C)cn2C)cn1C)CC(=O)Nc1cn(C)c(C(=O)Nc2cc(C(=O)Nc3cc(C(=O)Nc4cc(C(=O)NCCCN(C)CCCNC(=O)c5cccc(C(=O)O)c5)n(C)c4)n(C)c3)n(C)c2)n1 [Polyamide 2] | did not display significant signs of degradation at any pH |  |  | resistant to liver microsomal degradation | less soluble than 1; also recorded: relatively poor aqueous solubility | without significant changes to its DNA-binding ability | 46.0 ± 15.2 % of the administered dose | tenfold increase; also recorded: equivalent activity to 1 at tenfold less concentration
